Laboratory results as given in patent US20230064990A1, “DOSING REGIMENS AND METHODS FOR TREATING CANCER” (Panbela Therapeutics, Inc., priority 2020, published 2023).

How the values were obtained:
[1] = Phase 1 monotherapy dose escalation study, pharmacokinetics; format: in vivo, human; conditions: 0.05-0.8 mg/kg subcutaneous; Days 1 and 18 of cycle 1
[2] = Phase 1a/1b study in combination with G and A, safety; format: in vivo, human
Procedure: (§1) G (1000 mg/m^2) and A (125 mg/m^2) were administered intravenously on Days 1, 8, and 15 of each cycle. […] PK was evaluated on day 1 of cycle 1. Efficacy was assessed by CA19-9 levels, objective response was assessed by RECIST criteria, progression-free survival (PFS) and overall survival (OS).
(§2) This is a multicenter, open label, Phase 1a/1b study to evaluate to evaluate the safety, tolerability, pharmacokinetics and efficacy of (S,S)-(HO)2DEHSPM when administered in combination with G and A as first-line therapy in pancreatic cancer patients previously untreated for metastatic disease. The objective was to determine a recommended Phase 2 dose. Using a modified 3+3 dose escalation scheme, cohorts of subjects were dosed with subcutaneous injections of (S,S)-(HO)2DEHSPM at 0.2, 0.4 or 0.6 mg/kg days 1-5 of each 28-day cycle. Gemcitabine (1000 mg/m^2) and A (125 mg/m^2) were administered intravenously on Days 1, 8, and 15 of each cycle. […] PK was evaluated on day 1 of cycle 1. Efficacy was assessed by objective response rate (ORR) using RECIST criteria and by changes in CA19-9 levels. Subjects were treated until disease progression or the development of dose-limiting toxicity. Based upon initial safety findings and preliminary signals of efficacy, the protocol was amended to evaluate progression-free survival (PFS) and overall survival (OS) and expand the study to up to 36 subjects at the recommended Phase 2 dose. To date, 20 subjects were enrolled in cohorts 1-3 and evaluated for dose limiting toxicity and early signals of efficacy.

metastatic PDA = experiment: Phase 1a/1b study in combination with G and A, efficacy (RECIST, CA19-9); format: in vivo, human
Procedure: as §1, §2

[3] = Repeat doses in healthy beagles; format: in vivo
Procedure: This effect on the exocrine pancreas in dogs (causing nearly complete ablation of the exocrine pancreas) was an unexpected finding in development of this polyamine analogue as a therapeutic agent. It occurred in a dose-dependent manner several weeks after drug dosing was discontinued in dogs. Beginning 5 to 6 weeks post last dose, the animals at the high-dose levels rapidly lost weight and their serum trypsin-like immunoreactivity decreased to <2.5 μg/L, which is diagnostic for exocrine pancreatic insufficiency in this species. In addition, fat absorption tests became abnormal and hepatic transaminase values increased. The pancreata of euthanized animals were grossly atrophied with diffuse moderate to severe pancreatic atrophy, especially of the acini. However, the islets appeared both histologically intact and functional based on serum glucose levels and oral glucose tolerance tests.

[4] = N=20, (S,S)-(HO)2DEHSPM with G + A
[5] = N=20, in combination with G + A
[6] = Cohorts 2 and 3, N=13 evaluable, with G and A
[7] = in combination with G+A, previously untreated metastatic PDA
[8] = interim, cohorts 2 and 3, with G and A

For CCNCCC(O)CNCCCCNCC(O)CCNCC [(S,S)-(HO)2DEHSPM, (6S,15S)-3,8,13,18-teraazaicosane-6,15-diol], the “Plasma Cmax and AUC0-t versus dose” value [1] was “increased linearly with dose”, the “Grade ≥3 Anemia related to the named study medication (subjects)” value ([2]; N=20) was 0 and the “Grade ≥3 Dehydration related to the named study medication (subjects)” value ([2]; N=20) was 0. The “Grade ≥3 Delirium related to the named study medication (subjects)” value ([2]; N=20) was 0, the “Grade ≥3 Dyspnea related to the named study medication (subjects)” value ([2]; N=20) was 0 and the “Grade ≥3 Elevated LFTs related to the named study medication (subjects)” value ([2]; N=20) was 4. The “Grade ≥3 Elevated Lipase related to the named study medication (subjects)” value ([2]; N=20) was 1, the “Grade ≥3 Fatigue related to the named study medication (subjects)” value ([2]; N=20) was 0 and the “Grade ≥3 Hiccups (Intractable) related to the named study medication (subjects)” value ([2]; N=20) was 0. For the same compound, the “Grade ≥3 Hyponatremia related to the named study medication (subjects)” value ([2]; N=20) was 0, the “Grade ≥3 Neutropenia related to the named study medication (subjects)” value ([2]; N=20) was 0 and the “Grade ≥3 Thrombocytopenia related to the named study medication (subjects)” value ([2]; N=20) was 0. The “Grade ≥3 Anemia related to any study medication, Total (%)” value [2, 4] was “(15%)”, the “Grade ≥3 Anemia related to any study medication, Total N” value [2, 4] was 3 and the “Grade ≥3 Dehydration related to any study medication, Total (%)” value [2, 4] was “(5%)”. For the same compound, the “Grade ≥3 Dehydration related to any study medication, Total N” value [2, 4] was 1, the “Grade ≥3 Delirium related to any study medication, Total (%)” value [2, 4] was “(5%)” and the “Grade ≥3 Delirium related to any study medication, Total N” value [2, 4] was 1. The “Grade ≥3 Dyspnea related to any study medication, Total (%)” value [2, 4] was “(5%)”, the “Grade ≥3 Dyspnea related to any study medication, Total N” value [2, 4] was 1 and the “Grade ≥3 Elevated LFTs related to any study medication, Total (%)” value [2, 4] was “(20%)”. For the same compound, the “Grade ≥3 Elevated LFTs related to any study medication, Total N” value [2, 4] was 4, the “Grade ≥3 Elevated Lipase related to any study medication, Total (%)” value [2, 4] was “(5%)” and the “Grade ≥3 Elevated Lipase related to any study medication, Total N” value [2, 4] was 1. For the same compound, the “Grade ≥3 Fatigue related to any study medication, Total (%)” value [2, 4] was “(5%)”, the “Grade ≥3 Fatigue related to any study medication, Total N” value [2, 4] was 1 and the “Grade ≥3 Hiccups (Intractable) related to any study medication, Total (%)” value [2, 4] was “(5%)”. For the same compound, the “Grade ≥3 Hiccups (Intractable) related to any study medication, Total N” value [2, 4] was 1, the “Grade ≥3 Hyponatremia related to any study medication, Total (%)” value [2, 4] was “(5%)” and the “Grade ≥3 Hyponatremia related to any study medication, Total N” value [2, 4] was 1. For the same compound, the “Grade ≥3 Neutropenia related to any study medication, Total (%)” value [2, 4] was “(30%)”, the “Grade ≥3 Neutropenia related to any study medication, Total N” value [2, 4] was 6 and the “Grade ≥3 Thrombocytopenia related to any study medication, Total (%)” value [2, 4] was “(5%)”. The “Grade ≥3 Thrombocytopenia related to any study medication, Total N” value [2, 4] was 1, the “Grade ≥ 3 Anemia, %” value [2, 5] was 15% and the “Grade ≥ 3 Diarrhea, %” value [2, 5] was 0%. The “Grade ≥ 3 Fatigue, %” value [2, 5] was 5%, the “Grade ≥ 3 Leukopenia (G3-4), %” value [2, 5] was 15% and the “Grade ≥ 3 Neutropenia (G3-4), %” value [2, 5] was 30%. For the same compound, the “Grade ≥ 3 Peripheral Neuropathy, %” value [2, 5] was 0%, the “Grade ≥ 3 Thrombocytopenia, %” value [2, 5] was 5% and the “Diarrhea, Grade 1 (related AE, subjects)” value ([2]; N=20, with G+A) was 1. The “Diarrhea, Grade 2 (related AE, subjects)” value ([2]; N=20, with G+A) was 1, the “Diarrhea, Grade 3 (related AE, subjects)” value ([2]; N=20, with G+A) was 0 and the “Diarrhea, Grade 4 (related AE, subjects)” value ([2]; N=20, with G+A) was 0. For the same compound, the “Diarrhea, Grade 5 (related AE, subjects)” value ([2]; N=20, with G+A) was 0, the “Diarrhea, Total (%) (related AE)” value ([2]; N=20, with G+A) was 10% and the “Diarrhea, Total N (related AE)” value ([2]; N=20, with G+A) was 2. For the same compound, the “Elevated Liver Function Tests (LFTs), Grade 1 (related AE, subjects)” value ([2]; N=20, with G+A) was 0, the “Elevated Liver Function Tests (LFTs), Grade 2 (related AE, subjects)” value ([2]; N=20, with G+A) was 0 and the “Elevated Liver Function Tests (LFTs), Grade 3 (related AE, subjects)” value ([2]; N=20, with G+A) was 3. For the same compound, the “Elevated Liver Function Tests (LFTs), Grade 4 (related AE, subjects)” value ([2]; N=20, with G+A) was 1, the “Elevated Liver Function Tests (LFTs), Grade 5 (related AE, subjects)” value ([2]; N=20, with G+A) was 0 and the “Elevated Liver Function Tests (LFTs), Total (%) (related AE)” value ([2]; N=20, with G+A) was 20%. The “Elevated Liver Function Tests (LFTs), Total N (related AE)” value ([2]; N=20, with G+A) was 4, the “Fatigue, Grade 1 (related AE, subjects)” value ([2]; N=20, with G+A) was 4 and the “Fatigue, Grade 2 (related AE, subjects)” value ([2]; N=20, with G+A) was 3. For the same compound, the “Fatigue, Grade 3 (related AE, subjects)” value ([2]; N=20, with G+A) was 1, the “Fatigue, Grade 4 (related AE, subjects)” value ([2]; N=20, with G+A) was 0 and the “Fatigue, Grade 5 (related AE, subjects)” value ([2]; N=20, with G+A) was 0. For the same compound, the “Fatigue, Total (%) (related AE)” value ([2]; N=20, with G+A) was 40%, the “Fatigue, Total N (related AE)” value ([2]; N=20, with G+A) was 8 and the “Injection site pain, Grade 1 (related AE, subjects)” value ([2]; N=20, with G+A) was 4. The “Injection site pain, Grade 2 (related AE, subjects)” value ([2]; N=20, with G+A) was 0, the “Injection site pain, Grade 3 (related AE, subjects)” value ([2]; N=20, with G+A) was 0 and the “Injection site pain, Grade 4 (related AE, subjects)” value ([2]; N=20, with G+A) was 0. For the same compound, the “Injection site pain, Grade 5 (related AE, subjects)” value ([2]; N=20, with G+A) was 0, the “Injection site pain, Total (%) (related AE)” value ([2]; N=20, with G+A) was 20% and the “Injection site pain, Total N (related AE)” value ([2]; N=20, with G+A) was 4. For the same compound, the “Nausea, Grade 1 (related AE, subjects)” value ([2]; N=20, with G+A) was 1, the “Nausea, Grade 2 (related AE, subjects)” value ([2]; N=20, with G+A) was 1 and the “Nausea, Grade 3 (related AE, subjects)” value ([2]; N=20, with G+A) was 0. The “Nausea, Grade 4 (related AE, subjects)” value ([2]; N=20, with G+A) was 0, the “Nausea, Grade 5 (related AE, subjects)” value ([2]; N=20, with G+A) was 0 and the “Nausea, Total (%) (related AE)” value ([2]; N=20, with G+A) was 10%. For the same compound, the “Nausea, Total N (related AE)” value ([2]; N=20, with G+A) was 2, the liver enzyme elevation ([2]; interim, one patient in cohort 2 (0.4 mg/kg), with G and A) was “grade 3-4 reversible liver enzyme elevation” and the “(S,S)-(HO)2DEHSPM-related bone marrow suppression or peripheral neuropathy” value ([2]; interim, with G and A) was “no evidence of (S,S)-(HO)2DEHSPM-related bone marrow suppression or peripheral neuropathy”. The “reversibility of (S,S)-(HO)2DEHSPM-related increases in liver toxicity” value ([2]; when administration was interrupted and dose-reduced or discontinued) was “reversed in all but one subject”, the “Best response PR, number of evaluable subjects” value (metastatic PDA; [6]) was 8 and the “Best response PR, percent of evaluable subjects” value (metastatic PDA; [6]) was 62%. The “Best response SD, number of evaluable subjects” value (metastatic PDA; [6]) was 5, the “Best response SD, percent of evaluable subjects” value (metastatic PDA; [6]) was 38% and the “subjects with CA 19-9 maximum decrease greater than 60%” value (metastatic PDA; cohorts 2 and 3, N=16, with G and A) was 69%. The DCR (metastatic PDA; [7]) was 85%, the ORR (metastatic PDA; [7]) was 62% and the CA19-9 levels decreased (metastatic PDA; interim, cohorts 2 and 3, 7 of 8 evaluable subjects, with G and A) was 76-95%. For the same compound, the Stable disease (metastatic PDA; [8]) was 1, the partial responses (metastatic PDA; [8]) was 5 patients and the “effect on exocrine pancreas” value ([3]; cumulative exposure to repeat doses) was “exocrine pancreatic atrophy with exocrine pancreatic insufficiency without an inflammatory response and with preservation of islet cell function”. For the same compound, the serum trypsin-like immunoreactivity ([3]; high-dose levels, beginning 5 to 6 weeks post last dose) was < 2.5 µg/L.
